Data set [1] concerns H9. Put plainly: Concentration required to inhibit uninfected H9 cell growth by 50%. The class given is functional, cell-based. The note with it: Homo sapiens.
The subject of data set [2] is H9. Put plainly: Concentration required to inhibit HIV-1 replication by 50% in acutely infected H9 lymphocytes; NA means not active. The class given is functional, cell-based, Homo sapiens.
Data set [3] in a line: Therapeutic index expressed as IC50/EC50. The note with it: read-out: TI.
Data set [4] has as its system H9. Put plainly: Concentration required to inhibit HIV-1 replication by 50% in acutely infected H9 lymphocytes. The class given is functional, cell-based. The note with it: Homo sapiens.

Each structure is given as a SMILES string.

In general, IC50 refers to the concentration needed to halve the response being measured. In general, EC50 refers to the concentration at which the effect is half-maximal. Read a high EC50 as lower potency in that assay.

In the data set with H9 [1], `Cc1cc(=O)sc2c3c(ccc12)OC(C)(C)C=C3` returned an IC50 of 339 µM. Moreover, in the data set with H9 [2], the EC50 entry is on record as “Not Active”.

With `Cc1cc(=O)sc2c3c(ccc12)OC(C)(C)[C@H](O)[C@@H]3O`, the 50% inhibitory concentration (IC50) in the data set on H9 [1] came to 302 µM. In addition, the EC50 entry with H9 [2] is given as “Not Active”. For `Cc1cc(=O)sc2c3c(ccc12)OCC=C3`, the IC50 in the data set on H9 [1] came to 478 µM. Further, in data set [3], the selectivity ratio was determined as 62.3. For the compound `Cc1cn([C@H]2C[C@H](N=[N+]=[N-])[C@@H](CO)O2)c(=O)[nH]c1=O` [ZIDOVUDINE], the EC50 in the data set on H9 [4] worked out at 0.045 µM. In the data set with H9 [1], `Cc1cc(=O)sc2c3c(ccc12)OC[C@H](OC(=O)C12CCC(C)(C(=O)O1)C2(C)C)[C@@H]3OC(=O)C12CCC(C)(C(=O)O1)C2(C)C` (stereo not given in full) showed an IC50 of 194 µM. In addition, the selectivity ratio in data set [3] was determined as 62.3. `Cc1cc(=O)sc2c3c(ccc12)OC[C@H](O)[C@@H]3O` had an IC50 with H9 [1] of 340 µM. The selectivity ratio in data set [3] worked out at 11.1.

`Cc1cc(=O)sc2c3c(ccc12)OC(C)(C)[C@H](OC(=O)C12CCC(C)(C(=O)O1)C2(C)C)[C@@H]3OC(=O)C12CCC(C)(C(=O)O1)C2(C)C` (stereo not given in full) showed an IC50 in the data set on H9 [1] of 169 µM. The same compound came in with an EC50 with H9 [4] of 120 µM. The compound `CC1(C)Oc2ccc3ccc(=O)oc3c2[C@@H](OC(=O)C23CCC(C)(C(=O)O2)C3(C)C)[C@H]1OC(=O)C12CCC(C)(C(=O)O1)C2(C)C` (stereo not given in full) had an EC50 in the data set on H9 [4] of 0.000256 µM. Further, the selectivity ratio in data set [3] came out at 137000.

Source of the values: ChEMBL document CHEMBL1137931, “Anti-AIDS agents. Part 58: synthesis and anti-HIV activity of 1-thia-di-O-(-)-camphanoyl-(+)-cis-khellactone (1-thia-DCK) analogues” (Bioorg Med Chem Lett, 2004).
